The values below come from ChEMBL document CHEMBL1781988, “Quinolizidinyl derivatives of bi- and tricyclic systems as potent inhibitors of acetyl- and butyrylcholinesterase with potential in Alzheimer's disease” (Eur J Med Chem, 2011).

SMILES strings stand for the structures.

The target of assay [1] is Cholinesterase (Equus caballus, UniProt P81908).
Description: Inhibition of Equine serum BChE using butyrylthiocholine iodide as a substrate after 20 mins by Ellman's assay
Assay [2] concerns the target T1, Acetylcholinesterase (Bos taurus, UniProt P23795).
T1 sequence (P23795 whole entry): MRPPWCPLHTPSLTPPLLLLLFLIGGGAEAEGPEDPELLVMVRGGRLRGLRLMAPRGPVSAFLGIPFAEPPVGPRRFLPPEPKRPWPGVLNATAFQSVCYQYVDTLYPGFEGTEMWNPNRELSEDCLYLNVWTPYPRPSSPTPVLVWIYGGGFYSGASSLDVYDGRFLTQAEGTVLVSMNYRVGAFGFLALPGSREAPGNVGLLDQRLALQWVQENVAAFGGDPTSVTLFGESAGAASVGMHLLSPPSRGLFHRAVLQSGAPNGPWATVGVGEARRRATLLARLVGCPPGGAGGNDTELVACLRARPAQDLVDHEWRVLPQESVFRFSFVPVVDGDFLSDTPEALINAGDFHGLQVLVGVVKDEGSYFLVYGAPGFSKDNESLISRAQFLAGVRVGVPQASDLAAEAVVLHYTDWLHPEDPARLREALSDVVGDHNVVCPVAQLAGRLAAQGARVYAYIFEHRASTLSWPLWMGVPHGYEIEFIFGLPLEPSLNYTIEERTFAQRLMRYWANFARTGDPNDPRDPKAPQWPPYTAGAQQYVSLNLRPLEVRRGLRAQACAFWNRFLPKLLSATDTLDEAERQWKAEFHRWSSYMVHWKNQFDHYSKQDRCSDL
Description: Inhibition of bovine erythrocyte AChE using acetylthiocholine iodide as a substrate after 20 mins by Ellman's assay

A short description of assay [3]: Selectivity index, ratio of IC50 for bovine erythrocyte AChE to IC50 for Equine serum BChE.
In assay [4] the target is Cholinesterase (Equus caballus) (UniProt P81908). In words: Inhibition of Equine serum BChE using butyrylthiocholine iodide as a substrate at 10 uM after 20 mins by Ellman's assay.
Assay [5] deals with Cholinesterase (Homo sapiens, UniProt P06276).
Description: Inhibition of human plasma BChE
Assay [6] concerns the target Muscarinic acetylcholine receptor. In words: Inhibition of muscarinic receptor in rat brain synaptosomes. Format: subcellular.
The target of assay [7] is T2, Acetylcholinesterase (Homo sapiens, UniProt P22303).
Description: Inhibition of human plasma AChE
Assay [8] has as its target T2, Acetylcholinesterase. The source holds these as a separate data set.
Description: Inhibition of human erythrocytes AChE

T2 sequence (P22303 whole entry): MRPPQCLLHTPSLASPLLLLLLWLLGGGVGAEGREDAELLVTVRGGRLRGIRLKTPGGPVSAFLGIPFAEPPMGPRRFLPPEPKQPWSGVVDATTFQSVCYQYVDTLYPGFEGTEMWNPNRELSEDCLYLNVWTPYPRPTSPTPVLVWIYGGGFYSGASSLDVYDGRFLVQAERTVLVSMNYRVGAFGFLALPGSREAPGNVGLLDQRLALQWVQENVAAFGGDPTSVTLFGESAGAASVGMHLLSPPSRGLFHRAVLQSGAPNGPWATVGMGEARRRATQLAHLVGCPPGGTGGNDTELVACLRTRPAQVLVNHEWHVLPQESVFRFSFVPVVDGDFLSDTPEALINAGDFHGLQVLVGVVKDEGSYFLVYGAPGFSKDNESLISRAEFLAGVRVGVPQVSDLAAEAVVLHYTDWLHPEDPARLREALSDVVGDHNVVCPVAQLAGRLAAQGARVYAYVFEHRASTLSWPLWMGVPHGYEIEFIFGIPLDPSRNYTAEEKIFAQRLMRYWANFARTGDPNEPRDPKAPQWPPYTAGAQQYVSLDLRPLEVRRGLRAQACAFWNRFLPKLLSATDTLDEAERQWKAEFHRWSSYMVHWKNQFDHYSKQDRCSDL
Chain of Cholinesterase (Homo sapiens, UniProt P06276) (P06276 whole entry, looked up): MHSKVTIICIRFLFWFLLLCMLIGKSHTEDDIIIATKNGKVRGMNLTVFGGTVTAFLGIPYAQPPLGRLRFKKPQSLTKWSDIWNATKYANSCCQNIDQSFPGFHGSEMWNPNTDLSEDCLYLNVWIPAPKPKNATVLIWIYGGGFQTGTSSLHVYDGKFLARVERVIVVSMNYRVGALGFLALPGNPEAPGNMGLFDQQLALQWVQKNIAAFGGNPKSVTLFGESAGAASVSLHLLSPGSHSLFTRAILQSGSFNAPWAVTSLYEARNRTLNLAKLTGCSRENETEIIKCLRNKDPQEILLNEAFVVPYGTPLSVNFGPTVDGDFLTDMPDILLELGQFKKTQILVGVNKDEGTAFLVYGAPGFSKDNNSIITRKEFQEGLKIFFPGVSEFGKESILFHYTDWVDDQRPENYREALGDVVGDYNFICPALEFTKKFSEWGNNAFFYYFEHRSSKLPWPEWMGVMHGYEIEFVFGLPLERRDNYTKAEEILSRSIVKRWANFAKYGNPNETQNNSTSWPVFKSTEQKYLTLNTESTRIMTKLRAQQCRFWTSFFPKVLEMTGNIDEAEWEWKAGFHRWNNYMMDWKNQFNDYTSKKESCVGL
Chain of Cholinesterase (Equus caballus) (P81908 whole entry): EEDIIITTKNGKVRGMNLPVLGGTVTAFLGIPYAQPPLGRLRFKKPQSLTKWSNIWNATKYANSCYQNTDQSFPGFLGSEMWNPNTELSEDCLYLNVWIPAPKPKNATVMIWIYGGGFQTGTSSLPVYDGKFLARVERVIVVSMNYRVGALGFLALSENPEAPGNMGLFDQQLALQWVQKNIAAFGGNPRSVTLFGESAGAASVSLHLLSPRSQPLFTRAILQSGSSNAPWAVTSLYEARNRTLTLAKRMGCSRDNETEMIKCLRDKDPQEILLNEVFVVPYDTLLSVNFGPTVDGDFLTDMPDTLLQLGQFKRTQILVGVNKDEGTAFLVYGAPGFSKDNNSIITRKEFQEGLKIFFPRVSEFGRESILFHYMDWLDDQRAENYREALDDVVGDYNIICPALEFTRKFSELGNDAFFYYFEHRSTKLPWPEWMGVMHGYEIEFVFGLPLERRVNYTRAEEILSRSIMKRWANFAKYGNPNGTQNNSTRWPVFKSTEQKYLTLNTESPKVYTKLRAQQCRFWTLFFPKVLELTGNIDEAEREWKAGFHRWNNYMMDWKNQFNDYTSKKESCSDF
Chain of Cholinesterase (Equus caballus, UniProt P81908) (P81908 whole entry): as above

`COc1ccc2c(c1)N(C(=O)CSC[C@@H]1CCCN3CCCC[C@H]13)c1ccccc1S2`: in assay [1], the IC50 stood at 1200 nM.

In assay [1], `c1ccc2c(c1)-c1ccccc1C2C[C@H]1CCCN2CCCC[C@H]12` yielded an IC50 of 1100 nM.

`C(=C1c2ccccc2CCc2ccccc21)[C@@H]1CCCN2CCCC[C@H]12`: the IC50 in assay [1] came out at 4200 nM. On to `COc1ccc2nc3cc(Cl)ccc3c(NC[C@@H]3CCCN4CCCC[C@H]34)c2c1`, for which the IC50 amounted to 7300 nM in assay [2] and 870 nM in assay [1]. In assay [3], the Ratio IC50 is 8.4. As for `CN1CCCC(CC2c3ccccc3Sc3ccccc32)C1` (stereo unspecified) [METHIXENE], the IC50 in assay [1] turned out to be 1600 nM.

In the case of `O=c1ccc2cc(OCCCNC[C@@H]3CCCN4CCCC[C@H]34)ccc2o1`, the inhibition in assay [4] amounted to 40%. The IC50 in assay [2] came to 6600 nM.

Regarding `COc1ccc2nc3cc(Cl)ccc3c(NCCCSC[C@@H]3CCCN4CCCC[C@H]34)c2c1`, the IC50 in assay [2] was 220 nM; in assay [1], 690 nM. Moreover, the Ratio IC50 in assay [3] was 0.32. Take `CCN(CC)C(C)CN1c2ccccc2Sc2ccccc21` (stereo unspecified) [ETHOPROPAZINE]: the IC50 in assay [5] came to 300 nM; in assay [1], 720 nM. In the case of `COc1ccc2nc3cc(Cl)ccc3c(NCCSC[C@@H]3CCCN4CCCC[C@H]34)c2c1`, the IC50 in assay [2] stood at 840 nM; in assay [1], 340 nM. For the same compound, the Ratio IC50 in assay [3] amounted to 2.5. `FC(F)(F)c1ccc2c(c1)N(C[C@@H]1CCCN3CCCC[C@H]13)c1ccccc1S2` came in with an IC50 in assay [1] of 4000 nM. As to `O=C(CCCCSC[C@@H]1CCCN2CCCC[C@H]12)N1c2ccccc2Sc2ccccc21`, the IC50 in assay [2] stood at 5700 nM; in assay [1], 890 nM. For the same compound, the Ratio IC50 in assay [3] is 6.4.

Take `COc1ccc2nc3cc(Cl)ccc3c(SC[C@@H]3CCCN4CCCC[C@H]34)c2c1`: in assay [1], the IC50 was found to be 4700 nM. Compound `C[N+]12CCCC[C@@H]1[C@H](CN1c3ccccc3Sc3ccccc31)CCC2` (stereo partly specified) yielded an IC50 in assay [1] of 510 nM.

In turn, `OC1(C[C@@H]2CCCN3CCCC[C@H]23)c2ccccc2Sc2ccccc21` displayed an IC50 in assay [1] of 950 nM. On to `O=c1ccc2cc(OCCCSC[C@@H]3CCCN4CCCC[C@H]34)ccc2o1`, for which the IC50 in assay [2] and in assay [1] was 5400 nM in each case. Further, the Ratio IC50 in assay [3] is 0.06. The compound `c1ccc2c(c1)-c1ccccc1C2C[C@@H]1CCCN2CCCC[C@H]12` had a half-maximal inhibitory concentration (IC50) in assay [1] of 630 nM.

As for `C1=Cc2ccccc2C(=C[C@@H]2CCCN3CCCC[C@H]23)c2ccccc21`, the results for the IC50 in assay [2] and in assay [1] were 8300 nM and 2000 nM, respectively. For the same compound, the Ratio IC50 in assay [3] turned out to be 4.1. In the case of `c1ccc2c(c1)Oc1ccccc1N2C[C@@H]1CCCN2CCCC[C@H]12`, the IC50 in assay [1] was 2200 nM. As to `c1ccc2c(c1)Sc1ccccc1N2C[C@@H]1CCCN2CCCC[C@H]12` [LUPINYLPHENOTHIAZINE], the values for the IC50 in assay [1] and in assay [6] were 2000 nM and 100 nM, respectively.

As for `O=C(CCCSC[C@@H]1CCCN2CCCC[C@H]12)N1c2ccccc2Sc2ccccc21`, the IC50 came out at 6800 nM in assay [2] and 740 nM in assay [1]. Besides, in assay [3], the Ratio IC50 came out at 9.2.

For the compound `CCN(CC)C(C)C(=O)N1c2ccccc2Sc2ccccc21` (stereo unspecified), the IC50 in assay [1] turned out to be 840 nM. As to `c1ccc2c(c1)Sc1ccccc1C2C[C@@H]1CCCN2CCCC[C@H]12`, the IC50 was determined as 7000 nM in assay [2], 150 nM in assay [1] and 100 nM in assay [6]. Further, in assay [3], the Ratio IC50 is 47. As for `O=c1ccc2cc(OCCCCSC[C@@H]3CCCN4CCCC[C@H]34)ccc2o1`, the IC50 in assay [2] is 1200 nM; in assay [1] it was 4300 nM. The Ratio IC50 in assay [3] was determined as 0.28. As for `O=C1Nc2cccnc2N(C[C@@H]2CCCN3CCCC[C@H]23)c2ccccc21`, the inhibition in assay [4] was 28%. With `O=C(C[C@@H]1CCCN2CCCC[C@H]12)N1c2ccccc2Sc2ccccc21` [HOMOLUPINANOYLPHENOTHIAZINE], in assay [1], the midpoint of inhibition, the IC50, lay at 3000 nM. `CCCCCCCNC(=O)Oc1ccc2c(c1)[C@]1(C)CCN(C)[C@@H]1N2C` [EPTASTIGMINE] returned an IC50 in assay [7] of 22000 nM. `CN(C)CC(C)(C)c1cccc(OC(=O)NCCCCN2CCOCC2)c1`: the IC50 in assay [8] came to 100000 nM; in assay [5], 9 nM; in assay [7], 100000 nM. `O=C(C[C@H]1CCCN2CCCC[C@H]12)N1c2ccccc2Sc2ccccc21` came in with an IC50 in assay [1] of 4800 nM.

`c1ccc2c(c1)Sc1ccccc1N2C1CN2CCC1CC2` (stereo unspecified): the IC50 amounted to 3000 nM in assay [1] and 100 nM in assay [6]. `c1ccc2c(c1)CCc1ccccc1N2CSC[C@@H]1CCCN2CCCC[C@H]12` yielded an IC50 in assay [1] of 860 nM.

For the compound `C1=Cc2ccccc2N(C[C@@H]2CCCN3CCCC[C@H]23)c2ccccc21`, the IC50 in assay [2] turned out to be 8300 nM; in assay [1] it was 2200 nM. Besides, in assay [3], the Ratio IC50 came out at 3.8. Compound `c1ccc2c(c1)[Se]c1ccccc1N2C[C@H]1CCCN2CCCC[C@H]12` gave an IC50 in assay [1] of 870 nM. Same read-out and setting: the figure for `c1ccc2c(c1)CCc1ccccc1N2C[C@@H]1CCCN2CCCC[C@H]12` is 2200 nM. As to `N#Cc1ccc2c(c1)N(CCCN1CCC(O)CC1)c1ccccc1S2` [PERICIAZINE], the IC50 in assay [2] worked out at 7000 nM; in assay [1] it was 230 nM. Also, the Ratio IC50 in assay [3] came out at 30.

In assay [1], `O=C(CCSC[C@@H]1CCCN2CCCC[C@H]12)N1c2ccccc2Sc2ccccc21` returned an IC50 of 750 nM. Consider `C[N+]12CCCC[C@@H]1[C@H](CC1c3ccccc3Sc3ccccc31)CCC2` (stereo partly specified), for which it took 410 nM to reach half-maximal inhibition in assay [1] (IC50). Consider `c1ccc(N(C[C@@H]2CCCN3CCCC[C@H]23)c2ccccc2)cc1`, for which the IC50 stood at 8900 nM in assay [2] and 8100 nM in assay [1]. For the same compound, the Ratio IC50 in assay [3] came to 1.1.

In assay [1], `O=C(CSC[C@@H]1CCCN2CCCC[C@H]12)N1c2ccccc2Sc2ccccc21` came in with an IC50 of 430 nM.

With `c1ccc(C(C[C@@H]2CCCN3CCCC[C@H]23)c2ccccc2)cc1`, the values for the IC50 in assay [2] and in assay [1] were 6700 nM and 5500 nM, respectively. Also, in assay [3], the Ratio IC50 is 1.2. On to `CC(C)c1ccc(NC(=O)Oc2ccc3c(c2)[C@]2(C)CCN(CCc4ccccc4)[C@@H]2N3C)cc1`, for which the IC50 in assay [8] is over 30000 nM; in assay [5], 6 nM; in assay [7], over 30000 nM.

`c1ccc2c(c1)c1ccccc1n2C[C@@H]1CCCN2CCCC[C@H]12` had an IC50 in assay [1] of 2000 nM.

Regarding `c1ccc2c(c1)[Se]c1ccccc1N2C[C@@H]1CCCN2CCCC[C@H]12`, the concentration for half-maximal inhibition (IC50) in assay [1] was found to be 1100 nM. Compound `O=C1Nc2cccnc2N(CSC[C@@H]2CCCN3CCCC[C@H]23)c2ccccc21` registered an inhibition in assay [4] of 34%. Regarding `CC(SC[C@@H]1CCCN2CCCC[C@H]12)C(=O)N1c2ccccc2Sc2ccccc21` (stereo partly specified), in assay [1], the midpoint of inhibition, the IC50, lay at 470 nM.

`c1ccc(C(SC[C@@H]2CCCN3CCCC[C@H]23)c2ccccc2)cc1` displayed an IC50 in assay [1] of 3300 nM. Same read-out and setting: as for `c1ccc2c(c1)Cc1ccccc1N2C[C@@H]1CCCN2CCCC[C@H]12`, the figure is 1400 nM. For the compound `C(=C(c1ccccc1)c1ccccc1)[C@@H]1CCCN2CCCC[C@H]12`, the IC50 in assay [1] turned out to be 3800 nM. On the same count and under the same terms, as for `C(=C1c2ccccc2Sc2ccccc21)[C@@H]1CCCN2CCCC[C@H]12`, the figure is 930 nM. For `O=c1ccc2cc(OCCCCCSC[C@@H]3CCCN4CCCC[C@H]34)ccc2o1`, the values for the IC50 in assay [2] and in assay [1] were 680 nM and 5800 nM, respectively. For the same compound, the Ratio IC50 in assay [3] was determined as 0.12.
